Results taken from US8026240B2, “Octahydro-pyrrolo[3,4-b]pyrrole N-oxides” (Abbott Laboratories, priority 2007, dated 2011).

Target: T1, rat histamine-3 receptor (Rattus norvegicus, UniProt Q9QYN8)
T1 construct: expressed in transfected cells; host or cells: C6 or HEK293 cells
Experiment: histamine-3 receptor competition binding with [H3]-N-α-methylhistamine
Protocol: To determine the effectiveness of representative compounds of this invention as histamine-3 receptor ligands, the following tests were conducted according to previously described methods (see Arrang et al, “Histamine H3 Receptor Binding Sites in Rat Brain Membranes:Modulations by Guanine Nucleotides and Divalent Cations”, European Journal of Pharmacology, Vol. 188, pp. 219-227 (1990); Tedford et al., “Pharmacological Characterization of GT-2016, A Non-Thiourea-Containing Histamine H3 Receptor Antagonist: In Vitro and In Vivo Studies”, The Journal of Pharmacology and Experimental Therapeutics, Vol. 275, pp. 598-604 (1995); Leurs et al., “Histamine Homologues Discriminating Between Two Functional H3-Receptor Assays. Evidence for H3 Receptor”, Journal of Pharmacology and Experimental Therapeutics, Vol. 276, No. 3, pp. 1009-1015 (1996); and Cheng et al., “Relationship Between the Inhibition Constant (K1) and the Concentration of Inhibitor which Causes 50% Inhibition (150) of an Enzymatic Reaction”, Biochemical Pharmacology, Vol. 22., pp. 3099-3108 (1973)).
The rat histamine-3 receptor was cloned and expressed in cells, and competition binding assays carried out, according to methods previously described (see Esbenshade et al., “Pharmacological Properties of ABT-239 [4-(2-{2-[(2R)-2-Methylpyrrolidinyl ]ethyl}-benzofuran-5-yl)benzonitrile]: I. Potent and Selective Histamine H3 Receptor Antagonist with Drug-Like Properties”, Journal of Pharmacology and Experimental Therapeutics, Vol. 313, pp. 165-175, (2005); Esbenshade et al., “Pharmacological and Behavioral Properties of A-349821, a Selective and Potent Human Histamine H3 Receptor Antagonist”, Biochemical Pharmacology, Vol 68, pp. 933-945 (2004); Krueger et al., “G Protein-Dependent Pharmacology of Histamine H3 Receptor Ligands: Evidence for Heterogeneous Active State Receptor Conformations”, Journal of Pharmacology and Experimental Therapeutics, Vol. 314, pp. 271-281 (2005)). Membranes were prepared from C6 or HEK293 cells, expressing the rat histamine-3 receptor, by homogenization on ice in TE buffer (50 mM Tris-HCl buffer, pH 7.4, containing 5 mM EDTA), 1 mM benzamidine, 2 μg/ml aprotinin, 1 μg/ml leupeptin, and 1 μg/ml pepstatin. The homogenate was centrifuged at 40,000 g for 20 minutes at 4° C. […]
Membrane preparations were incubated with [H3]-N-α-methylhistamine (0.5-1.0 nM) in the presence or absence of increasing concentrations of ligands of formula (I) and formula (II) for histamine-3 receptor competition binding. […] Bound radiolabel was determined by liquid scintillation counting. For all of the radioligand competition binding assays, IC50 values and Hill slopes were determined by Hill transformation of the data and pKi values were determined by the Cheng-Prusoff equation.

[1] = compounds of formula (I), mean of 4 separate determinations

T1 sequence (Q9QYN8 whole entry): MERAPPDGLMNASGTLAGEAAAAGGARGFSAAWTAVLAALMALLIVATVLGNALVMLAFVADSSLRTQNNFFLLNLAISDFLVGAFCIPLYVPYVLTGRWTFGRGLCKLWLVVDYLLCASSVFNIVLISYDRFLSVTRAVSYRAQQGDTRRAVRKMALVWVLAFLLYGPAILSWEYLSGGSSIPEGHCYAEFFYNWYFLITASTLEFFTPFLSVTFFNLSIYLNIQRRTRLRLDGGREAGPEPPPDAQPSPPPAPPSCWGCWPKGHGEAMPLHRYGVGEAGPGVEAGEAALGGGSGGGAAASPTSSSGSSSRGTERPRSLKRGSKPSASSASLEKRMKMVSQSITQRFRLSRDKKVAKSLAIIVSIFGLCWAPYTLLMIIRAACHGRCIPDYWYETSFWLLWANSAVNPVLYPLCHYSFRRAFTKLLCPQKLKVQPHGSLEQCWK

Ki [1] | SMILES | Ki (compounds of formula (II))
– | CN1C[C@H]2CCN(c3ccc(-c4ccc(-n5ncccc5=O)cc4)cc3)[C@H]2C1 [2-{4′-[(3aR,6aR)-5-methylhexahydropyrrolo[3,4-b]pyrrol-1(2H)-yl]-1,1′-biphenyl-4-yl}pyridazin-3(2H)-one] | 8.2 nM
2240 nM | C[N@+]1([O-])C[C@H]2CCN(c3ccc(-c4ccc(-n5ncccc5=O)cc4)cc3)[C@H]2C1 (single isomer, unassigned) | –
> 5000 nM | C[N@@+]1([O-])C[C@H]2CCN(c3ccc(-c4ccc(-n5ncccc5=O)cc4)cc3)[C@H]2C1 (single isomer, unassigned) | –
– | CN1C[C@H]2CCN(c3ccc(-c4ccc(-n5ncccc5=O)nc4)cc3)[C@H]2C1 [2-(5-{4-[(3aR,6aR)-5-methylhexahydropyrrolo[3,4-b]pyrrol-1(2H)-yl]phenyl}pyridin-2-yl) pyridazin-3(2H)-one] | 3.5 nM
